Reference: patent US20250360160A1, “NEW MEDICAL USE OF TAFOXIPARIN” (DILAFOR AB, priority 2022, published 2025)

Test system: term pregnant, nulliparous women with an unripe cervix
Experiment: Clinical phase II trial PPL17 (Parts A and B), subcutaneous tafoxiparin vs placebo
Assay type: in vivo, human
Settings: for Labor induced with PGE-1, percent of subjects: placebo 10.2%; for Fetal distress as indication for operative delivery (ODFD), percent of patients: placebo 22.7%; for Percent of patients with operative delivery / proportion of women needing instrumental delivery: placebo 45.5%; for Labor induced with oxytocin, percent of subjects / proportion of women reaching spontaneous onset of labor with uncomplicated delivery: placebo 54.5%; for Labor induced with amniotomy, percent of subjects: placebo 56.8%; for Labor induction with Balloon catheter, percent of subjects: placebo 58.0%; for Labor induced, percent of subjects: placebo 70.5%; for number of women needing instrumental delivery: spontaneous onset of labor; for proportion reaching partus by vaginal delivery with no need for instrumental delivery nor caesarian section: placebo 48%; for proportion reaching partus by vaginal delivery with no need for instrumental delivery nor caesarian section / proportion of women needing instrumental delivery or caesarian section to reach partus: FIG. 5; for proportion of women needing instrumental delivery or caesarian section to reach partus: placebo 52%; for proportion of women needing instrumental delivery: vaginal mode of partus, FIG. 4; for number of subjects (women) that reach spontaneous onset of labor / percent of subjects (women) that reach spontaneous onset of labor: n=37
Description: A clinical phase II trial is performed as a randomized, double-blind, placebo-controlled, parallel-group proof of concept study (Part A) with a conditional dose finding follow up study (Part B) to evaluate the efficacy, safety, tolerability and dose response of subcutaneously administered tafoxiparin as a supplement to induction therapy in term pregnant, nulliparous women with an unripe cervix. The study is performed in Sweden and Finland (PPL17), and an EMA (European Medicines Agency) description of the study can be found on the EU Clinical Trials Register web (www.clinicaltrialsregister.eu/ctr-search/search?query=PPL17).
A total of 170 term pregnant women are randomized to receive either 300 mg of tafoxiparin, or corresponding placebo (vehicle), administered subcutaneously every 24±3 hours and up to a total of 7 doses, or until partus (Part A).
In the dose finding follow up study (Part B), a total of 164 term pregnant women are randomized to receive either 75 or 150 mg of tafoxiparin administered subcutaneously every 24±3 hours […] and up to a total of 7 doses, or until partus.
To assess the efficacy of tafoxiparin on cervical ripening/cervical ripening rate, during and up to the first seven days of treatment, measured by Bishop score. All women must be examined to check the cervical state before enrollment.
Time from start of treatment to increase in Bishop score of ≥2 points or spontaneous onset of labor, whichever comes first. Time from start of treatment to increase in Bishop score of ≥3 points or spontaneous onset of labor, whichever comes first. Time from start of treatment to increase in Bishop score of ≥4 points or spontaneous onset of labor, whichever comes first.
Cervical ripening as measured by change from baseline to end of treatment in Bishop Score. Time from onset of labor to partus, where onset of labor is defined as last record of 4 cm cervical dilatation visualized in the partogram and progress of labor, or last record of 4 cm of cervical dilatation in combination with amniotomy and intravenous administration oxytocin.
Proportion of women with spontaneous onset of labor (Response group I).
Tafoxiparin/Placebo is supplied by Dilafor AB to the site as kits designed to constitute 300 mg of tafoxiparin or placebo for daily administration. Apart from the active substance, each ml of study drug will constitute 0.015 M phosphate buffer. The study medication kit for each patient will contain 8 doses consisting of 2 vials containing a minimum extractable volume of 1.6 ml of 150 mg/ml of tafoxiparin or placebo. One dose is a reserve dose in case a dose is rendered unusable. The investigational product should be administered subcutaneously every 24±3hours by the site staff for up to 7 doses, or until partus. At each dosing time 1.0 ml of the drug will be extracted from each of the 2 vials and injected as separate s.c. injections in the abdominal or hip region.
Tafoxiparin/Placebo is supplied by Dilafor AB to the site as kits designed to constitute 75 or 150 mg of tafoxiparin for daily administration. Apart from the active substance, each ml of study drug will constitute 0.015 M phosphate buffer. The study medication kit for each patient will contain 8 doses consisting of 2 vials for each injection occasion containing a minimum extractable volume of 1.6 ml of 150 mg/ml of tafoxiparin or placebo. For subjects receiving 75 mg of tafoxiparin, one vial will contain active substance and one containing placebo. For subjects receiving 150 mg of tafoxiparin, both vials will contain active substance. One dose is a reserve dose in case a dose is rendered unusable. The investigational product should be administered subcutaneously every 24±3 hours by the site staff for up to 7 doses, or until partus. At each dosing time, 0.5 ml of the drug will be extracted from each of the 2 vials and injected as separate s.c. injections in the abdominal or hip region. […]

[1] = 150 mg, n = 85, listed as tafoxiparin
[2] = 150 mg, women with spontaneous onset of labor, of 36
[3] = 300 mg, n = 91, listed as tafoxiparin
[4] = 300 mg, women with spontaneous onset of labor, of 37

Substance: tafoxiparin
- Labor induced with PGE-1, percent of subjects [1]: 8.2%
- Fetal distress as indication for operative delivery (ODFD), percent of patients (150 mg, n = 85): 23.5%
- Percent of patients with operative delivery (150 mg, n = 85): 48.2%
- Labor induced with oxytocin, percent of subjects (150 mg, n = 85): (44.7%)
- Labor induced with oxytocin, percent of subjects [1]: 44.7%
- Labor induced with amniotomy, percent of subjects (150 mg, n = 85): (45.9%)
- Labor induced with amniotomy, percent of subjects [1]: 45.9%
- Labor induction with Balloon catheter, percent of subjects (150 mg, n = 85): (43.5%)
- Labor induction with Balloon catheter, percent of subjects [1]: 43.5%
- Labor induced, percent of subjects (150 mg, n = 85): (56.5%)
- Labor induced, percent of subjects [1]: 56.5%
- number of women reaching spontaneous onset of labor with uncomplicated delivery (150 mg, of 32 women): 23 women
- proportion of women reaching spontaneous onset of labor with uncomplicated delivery (150 mg, of 32 women): 71.9%
- number of women needing instrumental delivery or caesarian section to reach partus (150 mg, of 36 women): 13 women
- number reaching partus by vaginal delivery with no need for instrumental delivery nor caesarian section (150 mg, of 36 women): 23 women
- number of women achieving spontaneous onset of labor (150 mg, of 85 women): 36 women
- number of women needing instrumental delivery (150 mg, of 32 women): 9 women
- proportion reaching partus by vaginal delivery with no need for instrumental delivery nor caesarian section [2]: 63.9%
- proportion of women needing instrumental delivery or caesarian section to reach partus [2]: 36.1%
- proportion of women needing instrumental delivery (150 mg, women with spontaneous onset of labor, of 32, p 0.422): 28.1%
- time point of spontaneous onset of labor (change of Bishop score) (300 mg and 150 mg vs 75 mg and placebo, FIG. 3): achieved spontaneous onset of labor at an earlier time point
- proportion of women achieving spontaneous onset of labor (300 mg daily s.c., of 90 women, p=0.089, placebo 28.7%, FIG. 1): 41.1%
- number of subjects (women) that reach spontaneous onset of labor (300 mg, Study day 1): 2
- percent of subjects (women) that reach spontaneous onset of labor (300 mg, Study day 1): (5%)
- number of subjects (women) that reach spontaneous onset of labor (300 mg, Study day 2): 11
- percent of subjects (women) that reach spontaneous onset of labor (300 mg, Study day 2): (30%)
- number of subjects (women) that reach spontaneous onset of labor (300 mg, Study day 3): 18
- percent of subjects (women) that reach spontaneous onset of labor (300 mg, Study day 3): (49%)
- number of subjects (women) that reach spontaneous onset of labor (300 mg, Study day 4): 23
- percent of subjects (women) that reach spontaneous onset of labor (300 mg, Study day 4): (62%)
- number of subjects (women) that reach spontaneous onset of labor (300 mg, Study day 5): 30
- percent of subjects (women) that reach spontaneous onset of labor (300 mg, Study day 5): (81%)
- number of subjects (women) that reach spontaneous onset of labor (300 mg, Study day 6): 34
- percent of subjects (women) that reach spontaneous onset of labor (300 mg, Study day 6): (92%)
- number of subjects (women) that reach spontaneous onset of labor (300 mg, Study day 7): 37
- percent of subjects (women) that reach spontaneous onset of labor (300 mg, Study day 7): (100%)
- Fetal distress as indication for operative delivery (ODFD), number of patients (300 mg, n = 91): 11
- Labor induced with PGE-1, number of subjects (300 mg, n = 91): 5
- Labor induced with amniotomy, number of subjects (300 mg, n = 91): 50
- Labor induced with oxytocin, number of subjects (300 mg, n = 91): 45
- Labor induction with Balloon catheter, number of subjects (300 mg, n = 91): 42
- Labor induced, number of subjects (300 mg, n = 91, onset of labor with intervention): 53
- Labor induced with PGE-1, percent of subjects (300 mg, n = 91): (5.5%)
- Labor induced with PGE-1, percent of subjects [3]: 5.5%
- Fetal distress as indication for operative delivery (ODFD), percent of patients (300 mg, n = 91): 12.1%
- Percent of patients with operative delivery (300 mg, n = 91): 35.2%
- Labor induced with oxytocin, percent of subjects (300 mg, n = 91): (49.5%)
- Labor induced with oxytocin, percent of subjects [3]: 49.5%
- Labor induced with amniotomy, percent of subjects (300 mg, n = 91): (54.9%)
- Labor induced with amniotomy, percent of subjects [3]: 54.9%
- Labor induction with Balloon catheter, percent of subjects (300 mg, n = 91): (46.2%)
- Labor induction with Balloon catheter, percent of subjects [3]: 46.2%
- Labor induced, percent of subjects (300 mg, n = 91): (58.2%)
- Labor induced, percent of subjects [3]: 58.2%
- number of women reaching spontaneous onset of labor with uncomplicated delivery (300 mg, of 33 women): 27 women
- proportion of women reaching spontaneous onset of labor with uncomplicated delivery (300 mg, of 33 women): 81.8%
- number of women needing instrumental delivery or caesarian section to reach partus (300 mg, of 37 women): 10 women
- number reaching partus by vaginal delivery with no need for instrumental delivery nor caesarian section (300 mg, of 37 women): 27 women
- number of women achieving spontaneous onset of labor (300 mg, of 90 women): 37 women
- number of women needing instrumental delivery (300 mg, of 33 women): 6 women
- proportion reaching partus by vaginal delivery with no need for instrumental delivery nor caesarian section [4]: 73%
- proportion of women needing instrumental delivery or caesarian section to reach partus [4]: 27%
- proportion of women needing instrumental delivery (300 mg, women with spontaneous onset of labor, of 33, p=0.048): 18.2%
- achieving spontaneous onset of labor (conclusion) (all three doses 300 mg, 150 mg and 75 mg): effective for achieving spontaneous onset of labor
- mode of partus (conclusion) (all three doses 300 mg, 150 mg and 75 mg, compared to placebo): effective for a person to reach partus by vaginal delivery and with less need for instrumental delivery or caesarian section
- need for instrumental delivery (conclusion) (all three doses (300 mg, 150 mg and 75 mg), women with spontaneous onset of labor, vs placebo): effective in reducing the need for instrumental delivery
- need for intervention to achieve onset of labor (conclusion) (all three doses, compared to placebo): reduced the need for intervention in order to achieve onset of labor
- effect on cervical ripening (doses 300 mg and 150 mg, FIG. 3): beneficial effect on cervical ripening
- estimated cervical ripening rate measured by Bishop score (first 7 days of treatment, all three doses (300 mg, 150 mg and 75 mg) compared to placebo, FIG. 6): higher
- labor time up to vaginal delivery (partus) (women with spontaneous onset of labor, 300 mg (p=0.070), 150 mg (p 0.654), 75 mg (p 0.114) vs placebo, FIG. 2): shorter labor time up to vaginal delivery (partus) compared to placebo
